Assay results as given in the supplement of paper PMC10307832.

Tests used:
Assay in all cases: relative viability (nuclei count vs DMSO), 5 days (fraction); higher = more cells survive
[1] = compound: C1CC(C2=C(C1)C3=C(N2)C=CC(=C3)Cl)C(=O)N [Selisistat] + COc1cc2c(Oc3ccc(NC(=O)C4(C(=O)Nc5ccc(F)cc5)CC4)cc3F)ccnc2cc1OCCCN1CCOCC1 [Foretinib] (partner 0.25 µM)
In short: (§1)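 Lung cancer cell lines, seeded in 1536-well plates, were treated the following day by pin tool with a single drug or with five library-drug doses (not always all listed) in √10 steps on top of a fixed anchor-drug dose. Cells were fixed and nuclei stained in one step after 5 days, and nuclei were counted. Relative viability is the nuclei count for treated wells divided by that for vehicle wells, reported as medians of duplicate plates.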

[2] = compound: C1CC(C2=C(C1)C3=C(N2)C=CC(=C3)Cl)C(=O)N [Selisistat] + Nc1ncn([C@H]2C[C@H](O)[C@@H](CO)O2)c(=O)n1 [Decitabine] (partner 2 µM)
In short: as §1

[3] = compound: c1ccc2c(CCNc3ccc(Nc4ccncc4)cc3)c[nH]c2c1 [Serdemetan] + CC1(C)CCC(c2ccc(Cl)cc2)=C(CN2CCN(c3ccc(C(=O)NS(=O)(=O)c4ccc(N[C@H](CCN5CCOCC5)CSc5ccccc5)c(S(=O)(=O)C(F)(F)F)c4)cc3)CC2)C1 [Navitoclax] (partner 0.5 µM)
In short: as §1

[4] = compound: c1ccc2c(CCNc3ccc(Nc4ccncc4)cc3)c[nH]c2c1 [Serdemetan] + Nc1ncn([C@H]2C[C@H](O)[C@@H](CO)O2)c(=O)n1 [Decitabine] (partner 2 µM)
In short: as §1

Cell Line	relative viability ([1]; first compound 0.4 µM)	relative viability ([1]; first compound 1.265 µM)	relative viability ([1]; first compound 4 µM)	relative viability ([1]; first compound 12.65 µM)	relative viability ([1]; first compound 40 µM)	relative viability ([2]; first compound 0.4 µM)	relative viability ([2]; first compound 1.265 µM)	relative viability ([2]; first compound 4 µM)	relative viability ([2]; first compound 12.65 µM)	relative viability ([2]; first compound 40 µM)	relative viability ([3]; first compound 0.04 µM)	relative viability ([3]; first compound 0.1265 µM)	relative viability ([3]; first compound 0.4 µM)	relative viability ([3]; first compound 1.265 µM)	relative viability ([3]; first compound 4 µM)	relative viability ([4]; first compound 0.04 µM)	relative viability ([4]; first compound 0.1265 µM)	relative viability ([4]; first compound 0.4 µM)	relative viability ([4]; first compound 1.265 µM)	relative viability ([4]; first compound 4 µM)
LXF-289	1.03	1.02	0.868	0.947	0.997	0.425	0.379	0.337	0.355	0.431	0.931	0.927	0.884	0.759	0.749	0.354	0.357	0.349	0.268	0.337
NCI-H23	0.579	0.779	0.805	0.935	0.565	0.303	0.32		0.328	0.355	0.887	0.848	0.996	0.809	0.623	0.303	0.308	0.223		0.302
NCI-H322M	0.953	1.01	0.884	1.13	1.11	0.812	0.708		0.747	0.637	1.05	1.21	1.12	1.43	1.06	0.667	0.675	0.682	0.534	0.647
NCI-H441	0.936	1.12	0.961	0.951	0.817	0.268	0.234	0.234	0.25	0.293	0.424	0.654	0.87	0.87	0.317	0.256	0.22	0.249	0.219	0.172
NCI-H460	1.01	0.969	0.967	1.01	1.05	0.474	0.499	0.571	0.467	0.513	1.03	1.04	1.13	0.303	0.0983	0.374	0.385	0.314	0.194	0.102
NCI-H520	0.691	0.699	0.715	0.801	0.746	0.586	0.512	0.536	0.592	0.493	1	1.09	1.07	0.762	0.924	0.44	0.481	0.57	0.4	0.335
NCI-H596	1.09	0.693	0.846	0.89	0.585	1.07	1.02	0.862	1.09	1.07	0.967	0.922	0.741	0.465	0.34	0.965	0.94	0.772	0.636	0.588
NCI-H647	1.18	1.13	1.19	1.16	1.25	0.517	0.405	0.218	0.359	0.487	1.06	1.14	1.06	0.844	0.83	0.276	0.368	0.403	0.28	0.235
